Results reported in patent US20220296541A1, “N-PALMITOYL-ETHANOLAMIDE FOR USE IN THE PREVENTION OF COLORECTAL CARCINOMA” (priority 2021, published 2022).

Tests used:
HCT116 cells [1] = test: BrdU proliferation ELISA, HCT116 cells; assay type: cell-based, human; settings: 1-30 μM, 24 hours of exposure (FIG. 2A)
Method: (§1) For the in vitro experiments, immortalized human colon cancer (HCT116) and human colorectal adenocarcinoma cell lines (Caco-2) and immortalized healthy human colon epithelial cells (HCEC) were cultured in DMEM growth medium (Sigma Aldrich) supplemented with 10% serum bovine fetal (FBS, Sigma Aldrich) and kept at 37° C. in an incubator with a 5% CO2 atmosphere.
(§2) To assess viability, the cells are stained with Trypan blue while cell proliferation, in the presence or absence of ultra-micronized PEA (1-30 μM), was determined using the BrdU proliferation ELISA kit (Roche, Milan, Italy).

Caco-2 cells = test: BrdU proliferation ELISA, Caco-2 cells; assay type: cell-based, human; settings: 30 μM, 24 h (FIG. 2B)
Method: as §1, §2

[2] = test system: healthy human colon epithelial cells HCEC; test: BrdU proliferation ELISA, healthy colon epithelial cells HCEC; assay type: cell-based; settings: 24 h (FIG. 2C)
Method: as §1, §2

HCT116 cells [3] = test: Cell cycle analysis by flow cytometry (BrdU/7-AAD) of HCT116 cells; assay type: cell-based, human; settings: 30 μM for 24 h (FIG. 3A)
Method: as §1
The cell cycle analysis of HCT116 cells was performed following the protocol reported in the BD Pharmingen™ BrdU Flow Kit (BD Biosciences, USA). For the study, 1.5×10^5 cells was sown on 6-well plates and kept overnight in serum-free medium in the presence or absence of ultra-micronized PEA (30μM) for 24 h. The cells were detected with the BriCyte flow cytometer (Mindray, Italy) according to the BrdU (bromodeoxyuridine) and 7-AAD (7-aminoactinomycin D) content thereof. The data obtained were analyzed with FlowJo v10 software (tree Star, USA) to understand the distribution of HCT116 in the different cell cycle phases.

cyclin B1 = test: Gene expression of cyclin B1 by Real-Time PCR in HCT116 cells; assay type: cell-based, human; settings: 30 μM for 24 h (FIG. 3B)
Method: as §1
(§3) The expression of the CDK1 and CYCLIN B1 genes was evaluated by virtue of the quantitative Real-Time PCR method using specific primers.

[4] = test system: cyclic-dependent kinase 1 (CDK1); test: Gene expression of CDK1 by Real-Time PCR in HCT116 cells; assay type: cell-based, human; settings: 30 μM for 24 h (FIG. 3C)
Method: as §1, §3

[5] = test system: AOM-induced ACF, polyps and tumors; test: AOM mouse model of colon cancer; assay type: in vivo, male CD1 mice; settings: 10 mg/kg per os three times a week for 13 weeks, starting the week before first AOM
Method: The in vivo study was conducted on six-week-old (25-30 g) male CD1 mice fed ad libitum and housed in cages with a controlled sleep/wake cycle. Before the start of the experimentation, the animals were subjected to an acclimatization period of 1 week considering all the experimental procedures and protocols, compliant with the principles of the care of laboratory animals approved by the Italian Ministry of Health and respecting the ARRIVE guidelines [Curtis M J et al. Experimental design and analysis and their reporting II: updated and simplified guidance for authors and peer reviewers. […] The animals were chemically treated with AOM (azoxymethane, 40 mg/kg in total) [Neufert C et al. An inducible mouse model of colon carcinogenesis for the analysis of sporadic and inflammation-driven tumor progression. […] A single dose of AOM was injected intraperitoneally at a concentration of 10 mg/kg at the beginning of the first, second, third and fourth weeks of the experiment [Pagano E et al. Pharmacological inhibition of MAGL attenuates experimental colon carcinogenesis, Pharmacol Res 2017; 119: 227-236]. […] The animals were euthanized 12 weeks after the first AOM injection and the colorectal area was collected. […] The detection and quantification of ACF, polyps and colorectal tumors was performed following the protocol of Pagano E et al. Pharmacological inhibition of MAGL attenuates experimental colon carcinogenesis, Pharmacol Res 2017; 119: 227-236.

CCCCCCCCCCCCCCCC(=O)NCCO [ultra-micronized PEA, palmitoylethanolamide]
proliferation rate of HCT116 cells (HCT116 cells [1]): reduces the proliferation rate | proliferation of non-metastatic Caco-2 cells (Caco-2 cells): significantly reducing the proliferation | proliferation rate of the healthy epithelial cell line HCEC [2]: did not affect the proliferation rate | cell cycle arrest in the G2/M phase (HCT116 cells [3]): blocking neoplastic cells in the G2/M phase | percentage of cells in the S phase (HCT116 cells [3]): significant reduction | expression of cyclin B1 (cyclin B1): increased expression | expression of CDK1 [4]: increased expression | number of pre-neoplastic ACF lesions ([5]; vs AOM alone (FIG. 4A)): significantly reduces | number of polyps ([5]; vs AOM alone (FIG. 4B)): strong tendency to also reduce | total number of tumors ([5]; vs AOM alone (FIG. 4C)): significantly reduces
